≈ marks a conversion by molar mass, not a printed value.
How the values were obtained:
Type in all cases: functional
Staphylococcus aureus [1] = assay: Antimicrobial activity against Staphylococcus aureus SH1000 after 24 hrs by agar dilution method; details: SH1000, 24 h
[2] = tested on: Staphylococcus saprophyticus; assay: Antimicrobial activity against Staphylococcus saprophyticus ATCC 15305 after 24 hrs by agar dilution method; details: ATCC 15305, 24 h
Staphylococcus aureus [3] = assay: Antimicrobial activity against Staphylococcus aureus RN4220 after 24 hrs by agar dilution method; details: RN4220, 24 h
Staphylococcus aureus [4] = assay: Antimicrobial activity against Staphylococcus aureus RN4220 harboring tetracycline-regulable expression vector pAJ96 after 24 hrs by agar dilution method; details: RN4220, 24 h
Staphylococcus aureus [5] = assay: Antimicrobial activity against Staphylococcus aureus RN4220 harboring tetracycline-regulable expression vector pAJ96 expressing Staphylococcus aureus GyrB gene after 24 hrs by agar dilution method; details: RN4220, 24 h
Staphylococcus aureus [6] = assay: Antimicrobial activity against Staphylococcus aureus RN4220 harboring tetracycline-regulable expression vector pAJ96 expressing Staphylococcus saprophyticus GyrB gene after 24 hrs by agar dilution method; details: RN4220, 24 h
Staphylococcus aureus [7] = assay: Antimicrobial activity against Staphylococcus aureus RN4220 harboring tetracycline-regulable expression vector pAJ96 expressing Staphylococcus saprophyticus GyrB G85D mutant gene after 24 hrs by agar dilution method; details: RN4220, 24 h
Staphylococcus aureus [8] = assay: Antimicrobial activity against Staphylococcus aureus RN4220 harboring tetracycline-regulable expression vector pAJ96 expressing Staphylococcus saprophyticus GyrB K140R mutant gene after 24 hrs by agar dilution method; details: RN4220, 24 h
Staphylococcus aureus [9] = assay: Antimicrobial activity against Staphylococcus aureus RN4220 harboring tetracycline-regulable expression vector pAJ96 expressing Staphylococcus saprophyticus GyrB G85D, K140R mutant gene after 24 hrs by agar dilution method; details: RN4220, 24 h
[10] = Ratio of MIC for Staphylococcus aureus RN4220 harboring tetracycline-regulable expression vector pAJ96 expressing Staphylococcus saprophyticus GyrB gene to MIC for Staphylococcus aureus SH1000
[11] = Ratio of MIC for Staphylococcus aureus RN4220 harboring tetracycline-regulable expression vector pAJ96 expressing Staphylococcus saprophyticus GyrB gene to MIC for Staphylococcus aureus RN4220

In the case of CO[C@@H]1[C@@H](OC(N)=O)[C@@H](O)[C@H](Oc2ccc3c(O)c(NC(=O)c4ccc(O)c(CC=C(C)C)c4)c(=O)oc3c2C)OC1(C)C [NOVOBIOCIN], the MIC (Staphylococcus aureus [1]) is reported as 0.125 µg/mL (≈ 0.204 µM), the MIC [2] is reported as 16 µg/mL (≈ 26.1 µM) and the MIC (Staphylococcus aureus [3]) is reported as 0.125 µg/mL (≈ 0.204 µM). It also gave an MIC (Staphylococcus aureus [4]) of 0.125 µg/mL (≈ 0.204 µM), an MIC (Staphylococcus aureus [5]) of 0.125 µg/mL (≈ 0.204 µM) and an MIC (Staphylococcus aureus [6]) of 8 µg/mL (≈ 13.1 µM). For the same compound, the MIC (Staphylococcus aureus [7]) was 1 µg/mL (≈ 1.63 µM), the MIC (Staphylococcus aureus [8]) was 2 µg/mL (≈ 3.26 µM) and the MIC (Staphylococcus aureus [9]) was 0.125 µg/mL (≈ 0.204 µM). The Ratio [10] was 64 and the Ratio [11] was 64.
